# Assay results taken from the supplement of paper PMC4862054.
# Values joined by “and” are separate entries in the source; they are usually repeats but may differ in a detail not shown here. Equal entries are not always repeated.
# How the values were obtained:
# Test in all cases: normalised viability (% of control), CellTiter-Blue; higher = more viable cells (about 100 = DMSO control)
# Settings in all cases: incubation time: 72 h
# CAL-85-1 [1] = system: CAL-85-1
# Procedure: (§1)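 DSRT, CellTiter-Blue viability, 72 h incubation. Signal is normalised to DMSO and benzethonium chloride controls. Value is the normalised response at dose 9.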
# CAL-51 [2] = system: CAL-51
# Procedure: as §1
# CAL-148 [3] = system: CAL-148
# Procedure: as §1
# HDQ-P1 [4] = system: HDQ-P1
# Procedure: as §1
# MDA-MB-453 [5] = system: MDA-MB-453
# Procedure: as §1
# DU-4475 [6] = system: DU-4475
# Procedure: as §1
# CAL-85-1 [7] = system: CAL-85-1; remark: listed apart in the source
# Procedure: (§2)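 DSRT, CellTiter-Blue viability, 72 h incubation. Signal is normalised to DMSO and benzethonium chloride controls. Value is the normalised response at dose 8.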
# CAL-51 [8] = system: CAL-51; remark: listed apart in the source
# Procedure: as §2
# CAL-148 [9] = system: CAL-148; remark: listed apart in the source
# Procedure: as §2
# HDQ-P1 [10] = system: HDQ-P1; remark: listed apart in the source
# Procedure: as §2
# MDA-MB-453 [11] = system: MDA-MB-453; remark: listed apart in the source
# Procedure: as §2
# DU-4475 [12] = system: DU-4475; remark: listed apart in the source
# Procedure: as §2
SMILES,normalised viability (CAL-85-1 [1]) [%],normalised viability (CAL-51 [2]) [%],normalised viability (CAL-148 [3]) [%],normalised viability (HDQ-P1 [4]) [%],normalised viability (MDA-MB-453 [5]) [%],normalised viability (DU-4475 [6]) [%],normalised viability (CAL-85-1 [7]),normalised viability (CAL-51 [8]),normalised viability (CAL-148 [9]),normalised viability (HDQ-P1 [10]),normalised viability (MDA-MB-453 [11]),normalised viability (DU-4475 [12])
C[C@@H](CN1CC(=O)NC(=O)C1)N1CC(=O)NC(=O)C1 [Dexrazoxane] (10000 nM),93.7,92.9,96.2,85.2,100,102,–,–,–,–,–,–
COc1cc2c(Oc3ccc(NC(=O)C4(C(=O)Nc5ccc(F)cc5)CC4)cc3F)ccnc2cc1OCCCN1CCOCC1 [Foretinib] (300 nM),–,–,–,–,–,–,84%,68.5%,91.6%,60.9%,75.4%,98.8%
NC(=O)NO [Hydroxyurea] (30000 nM),–,–,–,–,–,–,89.1%,111%,103%,104%,93.1%,104%
O=NN(CCCl)C(=O)NC1CCCCC1 [Lomustine] (3000 nM),–,–,–,–,–,–,93.8%,113%,103%,99.7%,112%,89.1%
O=C(O)CC[C@H]1CC[C@@](c2cc(F)ccc2F)(S(=O)(=O)c2ccc(Cl)cc2)CC1 [MK-0752] (300 nM),–,–,–,–,–,–,94.6%,119%,95.3%,114%,114%,115%
NC1(c2ccc(-c3nc4ccn5c(=O)[nH]nc5c4cc3-c3ccccc3)cc2)CCC1 [MK-2206] (300 nM),–,–,–,–,–,–,82.9%,98.8%,91.3%,77.5%,73%,100%
NC(=O)c1cccc2cn(-c3ccc([C@@H]4CCCNC4)cc3)nc12 [MK-4827] (3000 nM),–,–,–,–,–,–,85.8%,48.8%,73.5%,91.3%,101%,58.6%
N[C@@H](Cc1ccc(N(CCCl)CCCl)cc1)C(=O)O [Melphalan] (297 nM),–,–,–,–,–,–,97.9%,106%,100%,100%,110%,88.9%
N[C@@H](Cc1ccc(N(CCCl)CCCl)cc1)C(=O)O [Melphalan] (990 nM),72.1,68.8,74.2,94,95.8,62.4,–,–,–,–,–,–
Cc1c(C(=O)Nc2ccc(N3C[C@@H](C)O[C@@H](C)C3)nc2)cccc1-c1ccc(OC(F)(F)F)cc1 [NVP-LDE225] (3000 nM),–,–,–,–,–,–,109%,101%,107%,84.1%,75.2%,121%
Cc1c(C(=O)Nc2ccc(N3C[C@@H](C)O[C@@H](C)C3)nc2)cccc1-c1ccc(OC(F)(F)F)cc1 [NVP-LDE225] (10000 nM),98.4,92.5,121,127,82.8,110,–,–,–,–,–,–
O=C(c1cc(Cc2n[nH]c(=O)c3ccccc23)ccc1F)N1CCN(C(=O)C2CC2)CC1 [Olaparib] (3000 nM),–,–,–,–,–,–,71.4%,68.9%,64.2%,100%,93%,72.4%
CO[C@H](C(=O)[C@@H](O)[C@@H](C)O)[C@@H]1Cc2cc3cc(O[C@H]4C[C@@H](O[C@@H]5C[C@@H](O)[C@H](O)[C@@H](C)O5)[C@H](O)[C@@H](C)O4)c(C)c(O)c3c(O)c2C(=O)[C@H]1O[C@H]1C[C@@H](O[C@@H]2C[C@@H](O)[C@@H](O[C@@H]3C[C@](C)(O)[C@H](O)[C@@H](C)O3)[C@@H](C)O2)[C@H](O)[C@@H](C)O1 [Plicamycin] (3000 nM),–,–,–,–,–,–,5.82% and 5.38%,3.09% and 4.26%,5.24% and 3.76%,23.8% and 15.9%,7% and 7.5%,2.08% and 0.69%
C[C@]12C=CC(=O)C=C1CC[C@@H]1[C@@H]2C(=O)C[C@@]2(C)[C@H]1CC[C@]2(O)C(=O)CO [Prednisone] (3000 nM),–,–,–,–,–,–,99.3%,102%,94.2%,120%,93.5%,104%
CO[C@H]1C[C@@H]2CC[C@@H](C)[C@@](O)(O2)C(=O)C(=O)N2CCCC[C@H]2C(=O)O[C@H]([C@H](C)C[C@@H]2CC[C@@H](O)[C@H](OC)C2)CC(=O)[C@H](C)/C=C(\C)[C@@H](O)[C@@H](OC)C(=O)[C@H](C)C[C@H](C)/C=C/C=C/C=C/1C [Sirolimus] (300 nM),–,–,–,–,–,–,59.8%,31.1%,39.1%,58.8%,31.6%,63.7%
CO[C@H]1C[C@@H]2CC[C@@H](C)[C@@](O)(O2)C(=O)C(=O)N2CCCC[C@H]2C(=O)O[C@H]([C@H](C)C[C@@H]2CC[C@@H](O)[C@H](OC)C2)CC(=O)[C@H](C)/C=C(\C)[C@@H](O)[C@@H](OC)C(=O)[C@H](C)C[C@H](C)/C=C/C=C/C=C/1C [Sirolimus] (1000 nM),59.3,26.1,44,70.3,25.3,59.9,–,–,–,–,–,–
CN1CCN(c2nc(C3=C(c4c[nH]c5ccccc45)C(=O)NC3=O)c3ccccc3n2)CC1 [Sotrastaurin] (3000 nM),–,–,–,–,–,–,141%,97.3%,116%,126%,93.8%,95.9%
CC/C(=C(\c1ccccc1)c1ccc(OCCN(C)C)cc1)c1ccccc1 [Tamoxifen] (3000 nM),–,–,–,–,–,–,102%,99.1%,117%,100%,89.7%,106%
COc1cc2c(N3CCN(C(=O)Nc4ccc(OC(C)C)cc4)CC3)ncnc2cc1OCCCN1CCCCC1 [Tandutinib] (300 nM),–,–,–,–,–,–,95.7%,115%,94.4%,93.5%,102%,109%
C[C@@H](C(=O)O)c1ccc(-c2ccccc2)c(F)c1 [Tarenflurbil] (3000 nM),–,–,–,–,–,–,88.8%,113%,94.4%,93%,79.5%,115%
Cn1nnc2c(C(N)=O)ncn2c1=O [Temozolomide] (3000 nM),–,–,–,–,–,–,97.3%,93.6%,88.8%,103%,104%,100%
CC[C@@H]1C(=O)N(C)c2cnc(Nc3ccc(C(=O)N[C@H]4CC[C@H](N5CCN(CC6CC6)CC5)CC4)cc3OC)nc2N1C(C)C [Volasertib] (300 nM),–,–,–,–,–,–,64.6%,9.3%,26.6%,59.4%,34.3%,18.6%
